Data as given in ChEMBL document CHEMBL1201862, “PubChem BioAssay data set” (2004).
Structures can show the parent of a compound that is named as a salt.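 Five concentrations, 48 hours, 96-well plates. Abbreviation: GI50, concentration required for 50% inhibition of growth.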 Calls of active or inactive are those of the source. Cut-off read from the data, not from the text of the source: active = GI50 up to about 1.1 µM and inactive = higher.

Tests used:
Assay in all cases: NCI-60 cell line screen, 48 h
ACHN = test system: ACHN
HCC 2998 = test system: HCC 2998
K562 = test system: K562
OVCAR-3 = test system: OVCAR-3
HL-60 = test system: HL-60
DMS-114 = test system: DMS-114
HCT-116 = test system: HCT-116
786-0 = test system: 786-0
HOP-92 = test system: HOP-92
NCI-H522 = test system: NCI-H522
UO-31 = test system: UO-31
M19-MEL = test system: M19-MEL
MOLT-4 = test system: MOLT-4
XF498 = test system: XF498
DMS-273 = test system: DMS-273
DLD-1 = test system: DLD-1
MDA-N = test system: MDA-N
T47D = test system: T47D
MDA-MB-231 = test system: MDA-MB-231
BT-549 = test system: BT-549

Measured: GI50

CCC12CCC(O)C1N(C)CCC2Sc1ccccc1 (centres undefined)
inactive: ACHN > 100 µM | HCC 2998 29.9 µM | K562 37.4 µM | OVCAR-3 > 100 µM | HL-60 22.9 µM | DMS-114 82.4 µM | HCT-116 70 µM | 786-0 > 100 µM | HOP-92 28.6 µM | NCI-H522 > 100 µM | UO-31 28.8 µM | M19-MEL > 100 µM | MOLT-4 28.5 µM | XF498 26.4 µM | DMS-273 > 100 µM

CN1CCc2cc(O)c3cc2C1Cc1ccc(cc1)Oc1cc(ccc1O)CC1c2c(cc4c(c2O3)OCO4)CCN1C (centres undefined)
inactive: ACHN 28.7 µM | HCC 2998 19.5 µM | K562 17.2 µM | OVCAR-3 75 µM | HL-60 16.3 µM | DMS-114 18.2 µM | HCT-116 36.6 µM | 786-0 58.2 µM | DLD-1 75.3 µM | UO-31 1.6 µM | MOLT-4 24.3 µM | XF498 14.4 µM | DMS-273 24.8 µM

COc1ccc(-c2ccccc2)c(N/N=C2\CCCNC2=O)c1
inactive: ACHN > 100 µM | HCC 2998 > 100 µM | OVCAR-3 > 100 µM | DMS-114 > 100 µM | HCT-116 13.1 µM | 786-0 85.7 µM | HOP-92 > 100 µM | DLD-1 > 100 µM | NCI-H522 > 100 µM | UO-31 > 100 µM | M19-MEL > 100 µM | MOLT-4 > 100 µM | XF498 18.7 µM | DMS-273 > 100 µM

COC(=O)c1cc(CC(C)C)c2c(c1)[nH]c1ccccc12
inactive: ACHN > 100 µM | HCC 2998 70.8 µM | K562 15.9 µM | OVCAR-3 > 100 µM | DMS-114 50.4 µM | HCT-116 > 100 µM | 786-0 > 100 µM | HOP-92 43.5 µM | DLD-1 > 100 µM | NCI-H522 68.2 µM | UO-31 > 100 µM | M19-MEL > 100 µM | MOLT-4 34 µM | XF498 > 100 µM | DMS-273 53.7 µM

O=C1C(Cl)=C(Cl)C(=O)N1C1C2CC3CC(C2)CC1C3 (centres undefined)
inactive: ACHN > 100 µM | HCC 2998 > 100 µM | K562 28 µM | HL-60 24.5 µM | DMS-114 > 100 µM | HCT-116 > 100 µM | 786-0 > 100 µM | HOP-92 > 100 µM | DLD-1 > 60.1 µM | NCI-H522 27.9 µM | UO-31 > 100 µM | M19-MEL > 100 µM | MOLT-4 21.4 µM | XF498 > 100 µM | DMS-273 > 100 µM

CNNCc1ccc(C(=O)NC(C)C)cc1 [PROCARBAZINE HYDROCHLORIDE]
inactive: MDA-N > 500 µM | ACHN > 500 µM | HCC 2998 > 398 µM | K562 410 µM | OVCAR-3 > 472 µM | HL-60 > 478 µM | T47D > 500 µM | MDA-MB-231 > 500 µM | HCT-116 > 500 µM | 786-0 254 µM | HOP-92 369 µM | DLD-1 > 500 µM | NCI-H522 > 500 µM | UO-31 > 500 µM | M19-MEL > 500 µM | MOLT-4 426 µM | XF498 > 500 µM | DMS-273 > 500 µM | BT-549 > 500 µM

CC1=NOC(=O)/C1=C/c1ccc([N+](=O)[O-])cc1
inactive: ACHN > 100 µM | HCC 2998 > 100 µM | K562 > 100 µM | OVCAR-3 > 100 µM | HL-60 > 100 µM | DMS-114 > 100 µM | HCT-116 > 100 µM | 786-0 > 100 µM | HOP-92 > 100 µM | DLD-1 > 100 µM | NCI-H522 > 100 µM | UO-31 > 100 µM | MOLT-4 > 100 µM | XF498 > 100 µM | DMS-273 > 100 µM

CNc1ccc2ncccc2c1[N+](=O)[O-]
inactive: ACHN > 100 µM | HCC 2998 > 100 µM | K562 > 100 µM | OVCAR-3 > 100 µM | HL-60 > 100 µM | DMS-114 > 100 µM | HCT-116 > 100 µM | 786-0 > 100 µM | HOP-92 > 100 µM | DLD-1 > 100 µM | UO-31 > 100 µM | M19-MEL > 100 µM | MOLT-4 > 100 µM | XF498 > 100 µM | DMS-273 > 100 µM

CC1=C(O)C(=O)c2cn(C)cc2C1=O
inactive: ACHN > 100 µM | HCC 2998 > 100 µM | K562 > 100 µM | OVCAR-3 > 100 µM | HL-60 > 100 µM | DMS-114 > 100 µM | HCT-116 > 100 µM | 786-0 > 100 µM | HOP-92 > 100 µM | DLD-1 > 100 µM | UO-31 > 100 µM | M19-MEL > 100 µM | MOLT-4 > 100 µM | XF498 > 100 µM | DMS-273 > 100 µM

O=C1C2C3C=CC(C2C(=O)N1CO)C1C2C(=O)N(CO)C(=O)C2C31 (centres undefined)
inactive: ACHN > 44.9 µM | HCC 2998 > 100 µM | K562 > 48.6 µM | OVCAR-3 > 92.9 µM | DMS-114 42 µM | HCT-116 > 44.5 µM | 786-0 > 44 µM | HOP-92 > 100 µM | DLD-1 > 46.9 µM | NCI-H522 > 100 µM | UO-31 > 100 µM | M19-MEL > 68.5 µM | MOLT-4 74.1 µM | XF498 > 100 µM | DMS-273 > 44.5 µM

CC1=CC2CC(C)C1(C)CCc1ccoc12 (centres undefined)
inactive: ACHN > 100 µM | HCC 2998 > 100 µM | K562 > 100 µM | OVCAR-3 > 100 µM | HL-60 > 100 µM | DMS-114 > 100 µM | HCT-116 > 100 µM | 786-0 > 100 µM | HOP-92 > 100 µM | DLD-1 > 100 µM | UO-31 > 100 µM | M19-MEL > 100 µM | MOLT-4 > 100 µM | XF498 > 100 µM | DMS-273 > 100 µM

COC(=O)C1=C(C[S+]([O-])c2ccccc2[N+](=O)[O-])ON(C)C1c1ccccc1 (centres undefined)
inactive: ACHN 31.2 µM | HCC 2998 15.8 µM | K562 22.4 µM | OVCAR-3 40.5 µM | HL-60 17.4 µM | DMS-114 24.7 µM | HCT-116 25.5 µM | 786-0 40.6 µM | DLD-1 30.9 µM | NCI-H522 18.4 µM | UO-31 46.8 µM | M19-MEL 47 µM | MOLT-4 31 µM | XF498 31.1 µM | DMS-273 28.1 µM

C1=C(c2ccccc2)SC(N2CCCCC2)S1 (centres undefined)
inactive: K562 52.2 µM | OVCAR-3 > 100 µM | HL-60 69 µM | DMS-114 60.1 µM | HCT-116 > 100 µM | HOP-92 > 100 µM | DLD-1 > 100 µM | NCI-H522 66.4 µM | UO-31 > 100 µM | M19-MEL 68.1 µM | MOLT-4 81.5 µM | XF498 > 100 µM | DMS-273 > 100 µM
